One data set addresses T1, CRF1 receptor (Homo sapiens, UniProt P34998).
T1 construct: Cell membranes are prepared according the method of Dieterich and DeSouza (1996); endogenous in cells; host or cells: IMR-32 human neuroblastoma cells (membranes)
T1 sequence (P34998 24-415): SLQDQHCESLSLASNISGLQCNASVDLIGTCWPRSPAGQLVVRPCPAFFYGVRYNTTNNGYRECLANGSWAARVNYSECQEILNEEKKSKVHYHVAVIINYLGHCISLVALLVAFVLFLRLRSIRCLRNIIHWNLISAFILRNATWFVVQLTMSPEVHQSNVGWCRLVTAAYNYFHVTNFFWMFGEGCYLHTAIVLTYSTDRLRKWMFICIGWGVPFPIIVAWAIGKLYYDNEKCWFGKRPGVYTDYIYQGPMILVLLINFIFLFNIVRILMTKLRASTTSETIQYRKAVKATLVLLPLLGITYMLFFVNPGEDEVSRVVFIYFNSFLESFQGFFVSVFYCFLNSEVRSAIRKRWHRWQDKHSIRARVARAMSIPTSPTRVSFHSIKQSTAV
The data set can be described thus: CRF1 Receptor Binding Assay (competition binding, IMR-32 cell membranes). To be noted: CRF1 affinity; [125I]Tyr0-ovine CRF, human IMR-32 neuroblastoma cell membranes. Here is the method: Human IMR-32 neuroblastoma cells are grown to 80% confluence in MEM medium containing 10% heat-inactivated FBS, 1 mM Sodium Pyruvate, and 0.1 mM nonessential amino acids. Cell membranes are prepared according the method of Dieterich and DeSouza (1996). The cells (˜5E+9) are resuspended in 10 volumes of wash buffer (5 mM Tris HCl, 10 mM MgCl2, 2 mM EGTA, pH 7.4 at RT), homogenized with a Polytron, and then centrifuged at 45,000 G for 20 min at 4° C. The membrane pellets are washed twice with wash buffer (45,000 G for 20 min at 4° C.) and then resuspended (50 mM Tris HCl, 10 mM MgCl2, 2 mM EGTA, pH 7.4 at RT). Protein concentration is determined using Pierce reagents and BSA as standard. Aliquots of 1-1.5 mL are stored at −80° C. until binding assay.
The competition binding assay is performed in a final volume of 250 μl which contains assay buffer (50 mM Tris-HCl, 10 MM MgCl2, 2 mM EGTA, 0.2% BSA, 0.1 mM bacitracin and 100 kIU/mL aprotinin pH 7.2 at R.T.), 0.05 nM [^125I]Tyr^0-ovine CRF (Du Pont New England Nuclear), 50 μg of membrane protein, and test compound at various concentrations. Non-specific binding is determined with 1 μM hCRF. Binding reactions are terminated after 2 hr incubation at 25° C. by filtering through 96-w GF/C filter plate using a Packard Harvester (Filtermate 196). The 96-w filter plate is pre-treated with 0.3% polyethyleneimine and pre-washed with washing buffer (50 mM Tris-HCl, 10 mM MgCl2, 2 mM EGTA, 0.2% BSA, pH 7.2 at 4° C.). Unbound radioactivity is removed by four rapid washes (0.8 ml/well) with wash buffer. The radioactivity is quantified using a Packard TopCount. Data are analyzed using non-linear iterative curve fitting to obtain IC50 and Hill slope values. PKi values are derived from pIC50 values (−log of IC50).

Consider 9 compounds from patent US7223767B2, “Tetrahydroquinazolines and dihydrocyclopentapyrimidines as CRF antagonists” (Roche Palo Alto LLC, priority 2003, dated 2007).

Molecules are shown by their SMILES. Structures can show the parent of a compound that is named as a salt.

For orientation: melting point means the temperature of the solid-liquid transition. The compound `CCCC1(CCC)CCCc2c(Nc3ccc(Cl)cc3Cl)nc(C)nc21` (as salt: hydrochloride) [Compound 11, (2,4-Dichloro-phenyl)-(2-methyl-8,8-dipropyl-5,6,7,8-tetra-hydro-quinazolin-4-yl)-amine] displayed a melting point of 238.3 to 243.9 °C.
Broadly, the IC50 is the point on the concentration scale where inhibition reaches its midpoint. A low value points to greater potency. `CCCN(CC1CC1)c1nc(C)nc2c1CCCC2c1ccccc1` (stereo not drawn) [Compound 1, Cyclopropylmethyl-(2-methyl-8-phenyl-5,6,7,8-tetra-hydro-quinazolin-4-yl)-propyl-amine]: the concentration for half-maximal inhibition (IC50) at CRF1 receptor is 2820 nM. This lies in the single-digit micromolar range.
As for `CCCN(CC1CC1)c1nc(C)nc2c1CCC[C@@]2(C)c1ccccc1` [Compound 2, Cyclopropylmethyl-((S)-2,8-dimethyl-8-phenyl-5,6,7,8-tetra-hydro-quinazolin-4-yl)-propyl-amine], on CRF1 receptor, the IC50 is 525 nM.
Same read-out and setting: in the case of `CCCN(CC1CC1)c1nc(C)nc2c1CCCC2c1ccc(Cl)cc1` (stereo not drawn) [Compound 3, [8-(4-Chloro-phenyl)-2-methyl-5,6,7,8-tetrahydro-quina-zolin-4-yl]-cyclopropylmethyl-propyl-amine] it was 2340 nM.
On the same count and under the same terms, in the case of `CCCN(CC1CC1)c1nc(C)nc2c1CCCC2(C)c1ccc(Cl)cc1` (stereo not drawn) [Compound 4, [8-(4-chloro-phenyl)-2,8-dimethyl-5,6,7,8-tetra-hydro-quinazolin-4-yl]-cyclopropylmethyl-pro-pyl-amine] it was 1740 nM; in that of `COCCN(CCOC)c1nc(C)nc2c1CCCC2c1ccc(Cl)cc1` (stereo not drawn) [Compound 5, [8-(4-Chloro-phenyl)-2-methyl-5,6,7,8-tetrahydro-quina-zolin-4-yl]-bis-(2-methoxy-ethyl)-amine], 28800 nM; in that of `COCCN(CCOC)c1nc(C)nc2c1CCCC2(C)c1ccc(Cl)cc1` (stereo not drawn) [Compound 6, [8-(4-Chloro-phenyl)-2,8-dimethyl-5,6,7,8-tetra-hydro-quinazolin-4-yl]-bis-(2-methoxy-ethyl)-a-mine], 11700 nM.
As for `CCCN(CC1CC1)c1nc(C)nc2c1CCC2c1ccc(C)cc1C` (stereo not drawn) [Compound 9, Cyclopropylmethyl-[7-(2,4-dimethyl-phenyl)-2-meth-yl-6,7-dihydro-5H-cyclopentapyrimidin-4-yl]-pro-pyl-amine], the IC50 at CRF1 receptor was 1120 nM.
`CCCN(CC1CC1)c1nc(C)nc2c1CCC2(C)c1ccc(C)cc1C` (stereo not drawn) [Compound 10, Cyclopropylmethyl-[7-(2,4-dimethyl-phenyl)-2,7-di-methyl-6,7-dihydro-5H-cyclopentapyrimidin-4-yl]-pro-pyl-amine] gave a half-inhibitory concentration (IC50) at CRF1 receptor of 661 nM.
